Experimental data from patent publication US4153709A, “N-Heterocyclic ureas as immune regulants” (Eli Lilly and Company, priority 1977, dated 1979).

Test system: antibody response to sheep blood cells (hemaglutination titer)
Assay: Immune regulating test: suppression of hemaglutination titer by 4-fold factor in mice (i.p. drug, i.p. sheep blood cells), Tables 1-15
Assay type: in vivo, Swiss mice
Conditions: Mus musculus, ip, 192 h, × 3, intraperitoneal, minimum dose to suppress the hemaglutination titer by a 4-fold factor, 8 days after antigen, read-out: Immuno-Suppressant ED4-Fold
Method: The ability of compounds according to the above formulas to alter immune mechanisms in a host animal was measured by their activity according to the following test. Groups of five 20-gram Swiss mice were injected intraperitoneally with standardized suspensions of an antigen--in this instance sheep blook cells. […] Eight days after injection of the antigen, the mice were bled and the sera from each group pooled. Antibody determinations were made on the serum pools by a hemaglutination pattern procedure and comparisons made between treated and control animals. In Tables 1-18 which follow, the activity of the compounds listed therein is given in terms of the minimum dose of drug necessary to suppress the hemaglutination titer by a 4-fold factor in the treated mice as compared with control titers.

Point of comparison: O=C(Nc1nc2c([N+](=O)[O-])cccc2[nH]1)Nc1ccccc1F [Table 6: 4(7), o-fluorophenyl], minimal effective dose 3.1 mg/kg. Against it:
- Cc1cc2nc(NC(=O)Nc3cc(Cl)ccc3Cl)sc2cc1C — not separable, < 12.5 mg/kg
- Cc1cc2nc(NC(=O)Nc3ccc(Cl)c(Cl)c3)sc2cc1C — 16-fold higher, 50 mg/kg
- Cc1cc2nc(NC(=O)Nc3cccc(Cl)c3)sc2cc1C — 32-fold higher, 100 mg/kg
- Cc1cc2nc(NC(=O)Nc3cccc(C(F)(F)F)c3)sc2cc1C — 8.1-fold higher, 25 mg/kg
- Cc1cc2nc(NC(=O)Nc3ccccc3Cl)sc2cc1C — not separable, < 100 mg/kg
- Cc1cc2nc(NC(=O)Nc3ccccc3F)sc2cc1C — lower, < 1.6 mg/kg
- Cc1cc2nc(NC(=O)Nc3ccc(Cl)cc3)sc2cc1C — 8.1-fold higher, 25 mg/kg
- Cc1cc2nc(NC(=O)Nc3ccc(F)cc3)sc2cc1C — 4-fold higher, 12.5 mg/kg
- O=C(Nc1ccc(Cl)c(Cl)c1)Nc1nc2ccccc2[nH]1 [Table 1: 3,4-dichlorophenyl, H] — 3.9-fold lower, 0.8 mg/kg
- O=C(Nc1cccc(Cl)c1)Nc1nc2ccccc2[nH]1 [Table 1: m-chlorophenyl, H] — the same, 3.1 mg/kg
- O=C(Nc1cccc(C(F)(F)F)c1)Nc1nc2ccccc2[nH]1 [Table 1: m-trifluoromethylphenyl, H] — 32-fold higher, 100 mg/kg
- O=C(Nc1nc2ccccc2[nH]1)Nc1ccccc1Cl [Table 1: o-chlorophenyl, H] — 4-fold higher, 12.5 mg/kg
- O=C(Nc1nc2ccccc2[nH]1)Nc1ccccc1F [Table 1: o-fluorophenyl, H] — 1.9-fold lower, 1.6 mg/kg
- Cc1ccccc1NC(=O)Nc1nc2ccccc2[nH]1 [Table 1: o-tolyl, H] — 8.1-fold higher, 25 mg/kg
- O=C(Nc1ccc(Br)cc1)Nc1nc2ccccc2[nH]1 [Table 1: p-bromophenyl, H] — 32-fold higher, 100 mg/kg
- O=C(Nc1ccc(Cl)cc1)Nc1nc2ccccc2[nH]1 [Table 1: p-chlorophenyl, H] — 4-fold higher, 12.5 mg/kg
- O=C(Nc1ccc(F)cc1)Nc1nc2ccccc2[nH]1 [Table 1: p-fluorophenyl, H] — 2-fold higher, 6.2 mg/kg
- Cc1ccc(NC(=O)Nc2nc3ccccc3[nH]2)cc1 [Table 1: p-tolyl, H] — 2-fold higher, 6.2 mg/kg
- O=C(Nc1nc2ccccc2[nH]1)Nc1cccc2ccccc12 [Table 1: α-naphthyl, H, N-(2-Benzimidazolyl)-N'-naphthylurea] — the same, 3.1 mg/kg
- Cc1cccc(NC(=O)Nc2nc3cc(Cl)ccc3[nH]2)c1 [Table 2: m-tolyl] — 8.1-fold higher, 25 mg/kg
- COc1ccccc1NC(=O)Nc1nc2cc(Cl)ccc2[nH]1 [Table 2: o-anisyl] — not separable, < 6.2 mg/kg
- O=C(Nc1nc2cc(Cl)ccc2[nH]1)Nc1ccccc1Cl [Table 2: o-chlorophenyl] — 32-fold higher, 100 mg/kg
- O=C(Nc1nc2cc(Cl)ccc2[nH]1)Nc1ccccc1F [Table 2: o-fluorophenyl] — not separable, < 100 mg/kg
- Cc1ccccc1NC(=O)Nc1nc2cc(Cl)ccc2[nH]1 [Table 2: o-tolyl] — 32-fold higher, 100 mg/kg
- O=C(Nc1ccc(Cl)cc1)Nc1nc2cc(Cl)ccc2[nH]1 [Table 2: p-chlorophenyl] — 2-fold higher, 6.2 mg/kg
- O=C(Nc1ccc(F)cc1)Nc1nc2cc(Cl)ccc2[nH]1 [Table 2: p-fluorophenyl] — not separable, < 12.5 mg/kg
- Cc1ccc(NC(=O)Nc2nc3cc(Cl)ccc3[nH]2)cc1 [Table 2: p-tolyl] — 16-fold higher, 50 mg/kg
- O=C(Nc1ccccc1)Nc1nc2cc(Cl)ccc2[nH]1 [Table 2: phenyl] — 8.1-fold higher, 25 mg/kg
- O=C(Nc1nc2cc(Cl)ccc2[nH]1)Nc1cccc2ccccc12 [Table 2: α-naphthyl] — 2-fold higher, 6.2 mg/kg
- CCOC(=O)c1ccc2[nH]c(NC(=O)Nc3cccc(Cl)c3)nc2c1 [Table 3: m-chlorophenyl] — 16-fold higher, 50 mg/kg
- CCOC(=O)c1ccc2[nH]c(NC(=O)Nc3cccc(C)c3)nc2c1 [Table 3: m-tolyl] — not separable, < 12.5 mg/kg
- CCOC(=O)c1ccc2[nH]c(NC(=O)Nc3cccc(C(F)(F)F)c3)nc2c1 [Table 3: m-trifluoromethylphenyl] — 32-fold higher, 100 mg/kg
- CCOC(=O)c1ccc2[nH]c(NC(=O)Nc3ccccc3Cl)nc2c1 [Table 3: o-chlorophenyl] — 7.8-fold lower, 0.4 mg/kg
- CCOC(=O)c1ccc2[nH]c(NC(=O)Nc3ccccc3F)nc2c1 [Table 3: o-fluorophenyl] — not separable, < 6.2 mg/kg
- CCOC(=O)c1ccc2[nH]c(NC(=O)Nc3ccccc3C)nc2c1 [Table 3: o-tolyl] — 8.1-fold higher, 25 mg/kg
- CCOC(=O)c1ccc2[nH]c(NC(=O)Nc3ccc(Cl)cc3)nc2c1 [Table 3: p-chlorophenyl] — 16-fold higher, 50 mg/kg
- CCOC(=O)c1ccc2[nH]c(NC(=O)Nc3ccc(F)cc3)nc2c1 [Table 3: p-fluorophenyl] — 8.1-fold higher, 25 mg/kg
- CCOC(=O)c1ccc2[nH]c(NC(=O)Nc3ccc(C)cc3)nc2c1 [Table 3: p-tolyl] — 32-fold higher, 100 mg/kg
- CCOC(=O)c1ccc2[nH]c(NC(=O)Nc3ccccc3)nc2c1 [Table 3: phenyl] — not separable, < 25 mg/kg
- CCOC(=O)c1ccc2[nH]c(NC(=O)Nc3cccc4ccccc34)nc2c1 [Table 3: α-naphthyl] — 2-fold higher, 6.2 mg/kg
- O=C(Nc1cccc(Cl)c1)Nc1nc2cc(C(F)(F)F)ccc2[nH]1 [Table 4: am-chlorophenyl, CF3] — higher, 50 to 200 mg/kg
- O=C(Nc1ccccc1)Nc1nc2cc(C(F)(F)F)ccc2[nH]1 [Table 4: phenyl, CF3] — 4-fold higher, 12.5 mg/kg
- Cc1ccc2[nH]c(NC(=O)Nc3ccccc3)nc2c1 [Table 4: phenyl, CH3] — 32-fold higher, 100 mg/kg
- O=C(Nc1nc2cc(C(F)(F)F)ccc2[nH]1)Nc1cccc2ccccc12 [Table 4: α-naphthyl, CF3] — not separable, < 50 mg/kg
- Cc1ccc2[nH]c(NC(=O)Nc3cccc4ccccc34)nc2c1 [Table 4: α-naphthyl, CH3] — lower, < 0.4 mg/kg
- Cc1cc2nc(NC(=O)Nc3ccc(F)cc3F)[nH]c2cc1C [Table 5: 2,4-difluorophenyl, CH3, CH3] — 7.8-fold lower, 0.4 mg/kg
- Cc1cc2nc(NC(=O)Nc3cc(Cl)ccc3Cl)[nH]c2cc1C [Table 5: 2,5-dichlorophenyl, CH3, CH3] — not separable, < 25 mg/kg
- Cc1cc2nc(NC(=O)Nc3ccc(Cl)c(Cl)c3)[nH]c2cc1C [Table 5: 3,4-dichlorophenyl, CH3, CH3] — 32-fold higher, 100 mg/kg
- Cc1cc2nc(NC(=O)Nc3cccc(Cl)c3)[nH]c2cc1C [Table 5: m-chlorophenyl, CH3, CH3] — 260-fold higher, 800 mg/kg
- Cc1cccc(NC(=O)Nc2nc3cc(C)c(C)cc3[nH]2)c1 [Table 5: m-tolyl, CH3, CH3] — 4-fold higher, 12.5 mg/kg
- Cc1cc2nc(NC(=O)Nc3ccccc3F)[nH]c2cc1C [Table 5: o-fluorophenyl, CH3, CH3] — 32-fold higher, 100 mg/kg
- Cc1cc2nc(NC(=O)Nc3ccccc3C)[nH]c2cc1C [Table 5: o-tolyl, CH3, CH3] — 4-fold higher, 12.5 mg/kg
- COc1ccc(NC(=O)Nc2nc3cc(C)c(C)cc3[nH]2)cc1 [Table 5: p-anisyl, CH3, CH3] — 4-fold higher, 12.5 mg/kg
- Cc1cc2nc(NC(=O)Nc3ccc(Br)cc3)[nH]c2cc1C [Table 5: p-bromophenyl, CH3, CH3] — 4-fold higher, 12.5 mg/kg
- Cc1cc2nc(NC(=O)Nc3ccc(Cl)cc3)[nH]c2cc1C [Table 5: p-chlorophenyl, CH3, CH3] — 4-fold higher, 12.5 mg/kg
- Cc1ccc(NC(=O)Nc2nc3cc(C)c(C)cc3[nH]2)cc1 [Table 5: p-tolyl, CH3, CH3] — within 1.5-fold, 3 mg/kg
- Cc1cc2nc(NC(=O)Nc3ccccc3)[nH]c2cc1C [Table 5: phenyl, CH3, CH3] — 4-fold higher, 12.5 mg/kg
- O=C(Nc1ccccc1)Nc1nc2cc(Cl)c(Cl)cc2[nH]1 [Table 5: phenyl, Cl, Cl] — 4-fold higher, 12.5 mg/kg
- Cc1cc2nc(NC(=O)Nc3cccc4ccccc34)[nH]c2cc1C [Table 5: α-naphthyl, CH3, CH3] — 16-fold higher, 50 mg/kg
- O=C(Nc1nc2cc(Cl)c(Cl)cc2[nH]1)Nc1cccc2ccccc12 [Table 5: α-naphthyl, Cl, Cl] — higher, > 12.5 mg/kg
- O=C(Nc1ccccc1)Nc1nc2c([N+](=O)[O-])cccc2[nH]1 [Table 6: 4(7), phenyl] — 8.1-fold higher, 25 mg/kg
- CN(C(=O)Nc1cccc(Cl)c1)c1nc2ccccc2[nH]1 [Table 7: m-chlorophenyl, H] — 8.1-fold higher, 25 mg/kg
- CN(C(=O)Nc1ccc(Cl)cc1)c1nc2ccccc2[nH]1 [Table 7: p-chlorophenyl, H] — 16-fold higher, 50 mg/kg
- CN(C(=O)Nc1ccccc1)c1nc2ccccc2[nH]1 [Table 7: phenyl, H] — 16-fold higher, 50 mg/kg
- CN(C(=O)Nc1cccc2ccccc12)c1nc2ccccc2[nH]1 [Table 7: α-naphthyl, H] — 8.1-fold higher, 25 mg/kg
- Cn1c(NC(=O)Nc2cccc(Cl)c2)nc2ccccc21 [Table 8: m-chlorophenyl, methyl] — 2-fold higher, 6.2 mg/kg
- Cn1c(NC(=O)Nc2ccc(Cl)cc2)nc2ccccc21 [Table 8: p-chlorophenyl, methyl] — higher, > 50 mg/kg
- Cn1c(NC(=O)Nc2ccccc2)nc2ccccc21 [Table 8: phenyl, methyl] — the same, 3.1 mg/kg
- O=C(Nc1ccccc1)Nc1nc2ccccc2n1-c1ccccc1 [Table 8: phenyl, phenyl] — 16-fold higher, 50 mg/kg
- Cn1c(NC(=O)Nc2cccc3ccccc23)nc2ccccc21 [Table 8: α-naphthyl, methyl] — higher, > 50 mg/kg
- O=C(Nc1cccc2ccccc12)Nc1nc2ccccc2n1-c1ccccc1 [Table 8: α-naphthyl, phenyl] — 32-fold higher, 100 mg/kg
- O=C(Nc1ccc(F)cc1)Nc1nc2cc3ccccc3cc2[nH]1 [Table 9: p-fluorophenyl] — higher, > 25 mg/kg
- O=C(Nc1ccccc1)Nc1nc2cc3ccccc3cc2[nH]1 [Table 9: phenyl] — 8.1-fold higher, 25 mg/kg
- O=C(Nc1nc2cc3ccccc3cc2[nH]1)Nc1cccc2ccccc12 [Table 9: α-naphthyl] — 16-fold higher, 50 mg/kg
- O=C(Nc1cccc(Cl)c1)Nc1nc2c(ccc3ccccc32)[nH]1 [Table 10: m-chlorophenyl] — 62-fold lower, 0.05 mg/kg
